In patent US11180474B2 (BRISTOL-MYERS SQUIBB COMPANY, priority 2016, dated 2021) one finds IC50 data, which are given here for twelve compounds.

The test addresses T1, human TLR7 (Homo sapiens, UniProt Q9NYK1).
T1 construct: host or cells: HEK-Blue cells
T1 sequence (Q9NYK1 27-1049): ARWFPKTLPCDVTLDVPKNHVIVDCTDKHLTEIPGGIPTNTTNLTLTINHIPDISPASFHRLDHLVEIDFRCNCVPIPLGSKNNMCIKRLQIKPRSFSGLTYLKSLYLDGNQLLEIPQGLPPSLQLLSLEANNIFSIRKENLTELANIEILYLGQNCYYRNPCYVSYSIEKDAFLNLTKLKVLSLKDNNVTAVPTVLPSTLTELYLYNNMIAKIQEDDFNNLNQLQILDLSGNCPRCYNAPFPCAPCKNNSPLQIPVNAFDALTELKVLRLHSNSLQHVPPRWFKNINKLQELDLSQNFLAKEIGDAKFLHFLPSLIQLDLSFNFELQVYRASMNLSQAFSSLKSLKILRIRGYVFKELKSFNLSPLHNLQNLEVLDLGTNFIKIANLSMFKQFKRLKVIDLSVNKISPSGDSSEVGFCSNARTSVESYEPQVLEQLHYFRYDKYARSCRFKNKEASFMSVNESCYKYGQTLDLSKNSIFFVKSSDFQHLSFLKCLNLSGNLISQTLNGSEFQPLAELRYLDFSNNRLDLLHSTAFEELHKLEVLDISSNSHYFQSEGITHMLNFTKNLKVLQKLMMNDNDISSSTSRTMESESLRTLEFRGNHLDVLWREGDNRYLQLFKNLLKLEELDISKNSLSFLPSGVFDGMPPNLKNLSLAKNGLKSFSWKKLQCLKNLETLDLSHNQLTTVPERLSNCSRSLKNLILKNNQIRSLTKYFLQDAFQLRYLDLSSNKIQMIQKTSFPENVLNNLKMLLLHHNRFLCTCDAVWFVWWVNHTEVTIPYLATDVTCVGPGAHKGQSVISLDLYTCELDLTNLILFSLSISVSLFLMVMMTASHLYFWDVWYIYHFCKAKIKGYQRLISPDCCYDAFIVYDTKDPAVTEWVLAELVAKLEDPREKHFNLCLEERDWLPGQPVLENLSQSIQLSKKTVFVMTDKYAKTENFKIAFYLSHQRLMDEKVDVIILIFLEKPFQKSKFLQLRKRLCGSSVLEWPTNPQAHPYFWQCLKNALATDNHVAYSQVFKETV
Description: TLR7 inhibition reporter assay (HEK-Blue cells, SEAP reporter, gardiquimod stimulation). In kind it is cell-based. As to conditions: HEK-Blue cells overexpressing human TLR7, gardiquimod 7.5 μM. In outline: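 In this cell reporter format, test compounds at 0.05 nM-50 μM final incubate 22 h with seeded cells (TLR7 15000, TLR8 20,000 per well). SEAP read-out by HEK-Blue Detection medium yields % inhibition relative to agonist/DMSO and known-inhibitor wells.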
Background: A reporter such as luciferase makes a cellular process visible.
As to `COc1ccc(-c2[nH]c3ccc(C4CCN(C5CCN(Cc6cccn6C)CC5)CC4)cc3c2C)cc1OC` [Example 78, 2-(3,4-dimethoxyphenyl)-3-methyl-5-(1′-((1-methyl-1H-pyrrol-2-yl)methyl)-[1,4′-bipiperidin]-4-yl)-1H-indole], the IC50 was determined as 223 nM.
For `COc1ccc(-c2[nH]c3ccc(C4CCN(C5CCCN(C6CCCC6)CC5)CC4)cc3c2C)cc1OC` (stereo not drawn) [Example 93, 5-(1-(1-cyclopentylazepan-4-yl)piperidin-4-yl)-2-(3,4-dimethoxyphenyl)-3-methyl-1H-indole] the value was 903 nM; for `CCN(CC)C(=O)C1CCCN(CC(=O)N2CCC(c3ccc4[nH]c(-c5ccc(OC)c(OC)c5)c(CC(F)(F)F)c4c3)CC2)C1` (stereo not drawn) [Example 418, 1-(2-(4-(2-(3,4-dimethoxyphenyl)-3-(2,2,2-trifluoroethyl)-1H-indol-5-yl)piperidin-1-yl)-2-oxoethyl)-N,N-diethylpiperidine-3-carboxamide], 79 nM; for `COc1ccc(-c2[nH]c3ccc(C4CCN(C5CCCN(C)CC5)CC4)cc3c2C)cc1OC` (stereo not drawn) [Example 91, 2-(3,4-dimethoxyphenyl)-3-methyl-5-(1-(1-methylazepan-4-yl)piperidin-4-yl)-1H-indole], 829 nM.
As to `CCN(CC)C(=O)C1CCCN(CC(=O)N2CCC(c3ccc4[nH]c(-c5ccc(OC)c(OC)c5)c(CC(F)(F)F)c4c3)CC2)C1` (stereo not drawn) [Example 420, 1-(2-(4-(2-(3,4-dimethoxyphenyl)-3-(2,2,2-trifluoroethyl)-1H-indol-5-yl)piperidin-1-yl)-2-oxoethyl)-N,N-diethylpiperidine-3-carboxamide], the IC50 came to 66 nM.
`COc1ccc(-c2[nH]c3ccc(C4CCN(C(=O)CN5CCN(C)CC5)CC4)cc3c2C)cc1OC` [Example 409, 1-(4-(2-(3,4-dimethoxyphenyl)-3-methyl-1H-indol-5-yl)piperidin-1-yl)-2-(4-methylpiperazin-1-yl)ethan-1-one] yielded an IC50 of 1010 nM.
The compound `COc1ccc(-c2[nH]c3ccc(C4CCN(C5CCCN(CC(C)C)CC5)CC4)cc3c2C)cc1OC` (stereo not drawn) [Example 95, 2-(3,4-dimethoxyphenyl)-5-(1-(1-isobutylazepan-4-yl)piperidin-4-yl)-3-methyl-1H-indole] displayed an IC50 of 819 nM.
Compound `COc1ccc(-c2[nH]c3ccc(C4CCN(C5CCN(CC(O)CO)CC5)CC4)cc3c2C)cc1OC` (stereo not drawn) [Example 52, 3-(4-(2-(3,4-dimethoxyphenyl)-3-methyl-1H-indol-5-yl)-[1,4′-bipiperidin]-1′-yl)propane-1,2-diol] showed an IC50 of 230 nM.
Turning to `COc1ccc(-c2[nH]c3ccc(C4CCN(C(=O)CN(C)CCO)CC4)cc3c2C)cc1OC` [Example 408, 1-(4-(2-(3,4-dimethoxyphenyl)-3-methyl-1H-indol-5-yl)piperidin-1-yl)-2-((2-hydroxyethyl)(methyl)amino)ethan-1-one], the concentration for half-maximal inhibition (IC50) amounted to 898 nM.
Take `COc1ccc(-c2[nH]c3ccc(C4CCN(C5CCN(Cc6nccs6)CC5)CC4)cc3c2C)cc1OC` [Example 72, 2-((4-(2-(3,4-dimethoxyphenyl)-3-methyl-1H-indol-5-yl)-[1,4′-bipiperidin]-1′-yl)methyl)thiazole]: half-maximal inhibition (IC50) required 563 nM.
As for `COc1ccc(-c2[nH]c3ccc(C4CCN(C5CCN(Cc6cccs6)CC5)CC4)cc3c2C)cc1OC` [Example 64, 2-(3,4-dimethoxyphenyl)-3-methyl-5-(1′-(thiophen-2-ylmethyl)-[1,4′-bipiperidin]-4-yl)-1H-indole], the midpoint of inhibition, the IC50, lay at 163 nM.
`COc1ccc(-c2[nH]c3ccc(C4CCN(C5CCN(CC6CCCCC6)CC5)CC4)cc3c2C)cc1OC` [Example 58, 5-(1′-(cyclohexylmethyl)-[1,4′-bipiperidin]-4-yl)-2-(3,4-dimethoxyphenyl)-3-methyl-1H-indole] had a half-maximal inhibitory concentration (IC50) of 266 nM.

The IC50 is the concentration that gives 50% inhibition. Read a low IC50 as greater potency in that assay.
